# Laboratory results published in US8455523B2, “Compositions and methods for treating hyperlipidemias” (The Research Foundation of State University of New York, priority 2010, dated 2013).
# Experiments:
# [1] = tested on: C57Bl/6J mice fed western diet; test: MTP inhibitor CP-346086 with or without lovastatin or WY14643 in western diet fed mice: plasma/hepatic lipids, AST/ALT; type: in vivo; conditions: WD 8 weeks
# Description: FIGS. 4a and 4b. Effect of MTP inhibitor (CP-34086) on plasma lipids and lipoproteins in C57Bl/6J mice fed western diet ad libitum for 8 weeks. MTP inhibitor solubilzed in DMSO was administered orally for one week (15 mg/kg/day) along with either DMSO (MTPi), lovastatin (50 mg/kg/day), or WY14643 (10 mg/kg/day). Control mice were gavaged with DMSO only.
# FIGS. 5a and 5b. Liver samples from FIG. 4 were used to measure MTP activity (A) and hepatic lipids (B-E). Stars on MPTi group represent comparison between Control and MTPi groups.
# Control group (n=4) received daily oral gavage of DMSO alone. MTPi group received 15 mg/kg/day MTP inhibitor CP-346086 (MTPi) once daily. […] Plasma total and HDL cholesterol were unaffected by MTPi. Combined treatment of MTPi and lovastatin decreased plasma LDL cholesterol. […] Next, we measured changes in plasma hepatic enzymes (FIGS. 4G-H). […] These studies indicate that apart from lowering plasma triglyceride, MTPi enhances plasma AST/ALT and these increases can be avoided by the co-administration of lovastatin.
# [2] = tested on: Reversa mice
# Description: FIG. 11. Reversa animals were injected with plpC every other day for one week. Lovastatin, T-090317 and WY14643 were administered by oral gavage everyday for 30 days after the first injection. Animals were sacrificed on day 30 and plasma and livers were harvested and analyzed. * represent comparison to PBS injected animals and # represent comparisons to plpC control.
# Animals: Mttp^tm2Sgy LdIr^tm1Her Apob^tm2Sgy Tg(Mx1-cre)1Cgn/J mice (Reversa) (stock number 004192) were obtained from Jackson Laboratories. Male reversa mice were used to study the effect of mttp gene deletion on plasma and tissue lipids. These animals are transgenic for apolipoprotein B, LDLR^−/− and floxed at exon 1 of the mttp locus. In addition, these mice express cre recombinase under the control of the Mx1 promoter, which is induced after intraperitoneal injection of polyinosinic polycytidylic ribonucleic acid (plpC—Sigma) in the liver, spleen and intestine. Injection of plpC activates the cre recombinase and deletes the mttp gene in the liver and intestines. Reversa mice were injected with either PBS or plpC. Mice injected with plpC were orally gavaged with DMSO (Sigma-Aldrich D8418), DMSO+Lovastatin (50 mg/kg/day) (Calbiochem 438186), DMSO+T0901317 (50 mg/kg/day) (Calbiochem 575310), or DMSO+WY14643 (10 mg/kg/day) (Calbiochem 681725). Mice injected with plpC were also injected with either PBS or Ω-3 fatty acids (SUNY Downstate Medical Center). All animals were given supplemental treatments for 30 days.
# All animals were kept in 07:00-19:00 h lighting schedule. […] Food was withdrawn 16 h before the sacrifice of the mice. On the day of the experiment, mice were anesthetized and blood was collected from the heart. Liver was collected, washed in ice-cold PBS, cut into small pieces and used for lipid extraction, histological staining, to measure different protein activities/quantities and for mRNA analysis. Lipids were extracted from the tissue homogenates following the Bligh and Dyer method. Triglyceride (Infinity TM Triglyceride, TR22421) and total cholesterol (Infinity TM Cholesterol, TR13421) levels in the tissues were determined using commercial kits (Thermo Scientific). Free cholesterol and free fatty acid levels were measured using kits from Wako Chemicals (Germany). Esterified cholesterol was calculated by subtracting the free cholesterol from the total cholesterol.
# To determine whether accumulation of hepatic triglyceride and free cholesterol is related to increases in plasma AST/ALT, we sought to reduce these lipids using different chemical compounds of known physiologic effects. Mice injected with plpC were orally gavaged with DMSO, DMSO+Lovastatin (50 mg/kg/day), DMSO+T0901317 (50 mg/kg/day), or DMSO+WY14643 (10 mg/kg/day). Lovastatin (Lova), an HMG-CoA reductase (HMGR) inhibitor, and T0901317 (T0), an LXR agonist, are expected to decrease hepatic free cholesterol by inhibiting endogenous cholesterol synthesis and increasing cholesterol efflux, respectively. WY14643 (WY), a PPARα agonist, increases β-oxidation of fatty acids and lowers hepatic triglycerides.
# To evaluate the efficacy of Ω-3 FA in reducing hepatic triglyceride, plpC injected mice were treated with intraperitoneal injection of Ω-3 FA (3 mg/kg/2 day) or Ω-3 FA and Lova.
# [3] = target: T1, MTP (Mus musculus, UniProt O08601); test: Determination of MTP activity in tissues (liver homogenates of treated mice); type: in vivo; conditions: Reversa mice, plpC vs PBS
# T1 construct: small pieces (0.1 g) of liver and ˜1-cm segments of proximal small intestine were homogenized; from tissue; host or cells: mouse liver (C57BL/6J; Reversa mice in some experiments); supernatant of ultracentrifuged homogenate
# T1 sequence (O08601 22-894): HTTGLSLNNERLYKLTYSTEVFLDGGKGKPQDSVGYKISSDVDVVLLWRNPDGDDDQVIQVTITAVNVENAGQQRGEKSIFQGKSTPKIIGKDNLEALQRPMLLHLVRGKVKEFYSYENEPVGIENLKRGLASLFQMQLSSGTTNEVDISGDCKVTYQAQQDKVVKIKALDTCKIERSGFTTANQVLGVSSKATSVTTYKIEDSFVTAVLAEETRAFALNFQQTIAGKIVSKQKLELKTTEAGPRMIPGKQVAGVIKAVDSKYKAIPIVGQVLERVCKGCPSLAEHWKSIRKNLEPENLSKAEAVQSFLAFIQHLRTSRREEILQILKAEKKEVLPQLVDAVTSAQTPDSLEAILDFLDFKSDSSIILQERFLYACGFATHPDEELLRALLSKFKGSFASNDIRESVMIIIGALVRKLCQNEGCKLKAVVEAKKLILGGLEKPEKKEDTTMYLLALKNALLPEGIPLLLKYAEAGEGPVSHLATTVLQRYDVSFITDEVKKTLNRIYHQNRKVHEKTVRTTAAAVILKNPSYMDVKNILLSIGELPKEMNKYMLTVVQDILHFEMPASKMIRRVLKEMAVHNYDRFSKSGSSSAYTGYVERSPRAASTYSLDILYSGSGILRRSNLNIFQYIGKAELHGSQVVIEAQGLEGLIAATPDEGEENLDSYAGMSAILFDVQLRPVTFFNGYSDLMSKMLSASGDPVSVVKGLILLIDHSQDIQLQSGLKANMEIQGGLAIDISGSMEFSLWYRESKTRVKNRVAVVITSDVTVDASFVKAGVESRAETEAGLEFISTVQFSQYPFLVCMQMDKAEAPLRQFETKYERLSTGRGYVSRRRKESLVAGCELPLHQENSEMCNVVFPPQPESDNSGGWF
# T1 sequence (P09103 21-509 partner limits assumed): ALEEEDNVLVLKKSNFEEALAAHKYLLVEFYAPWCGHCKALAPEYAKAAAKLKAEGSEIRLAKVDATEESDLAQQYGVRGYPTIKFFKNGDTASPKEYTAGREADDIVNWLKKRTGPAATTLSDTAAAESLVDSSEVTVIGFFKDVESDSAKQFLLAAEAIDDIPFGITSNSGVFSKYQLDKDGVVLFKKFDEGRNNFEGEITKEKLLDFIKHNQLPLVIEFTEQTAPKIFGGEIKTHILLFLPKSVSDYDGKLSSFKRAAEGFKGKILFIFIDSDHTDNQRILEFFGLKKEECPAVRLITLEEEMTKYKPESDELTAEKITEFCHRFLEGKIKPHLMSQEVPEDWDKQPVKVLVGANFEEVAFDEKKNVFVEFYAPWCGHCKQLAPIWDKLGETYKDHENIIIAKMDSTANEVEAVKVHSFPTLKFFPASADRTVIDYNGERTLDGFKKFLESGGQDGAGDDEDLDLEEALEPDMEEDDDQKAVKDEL
# Description: After extensive washes with ice-cold PBS, small pieces (0.1 g) of liver and ˜1-cm segments of proximal small intestine were homogenized with 1 ml of ice-cold 1 mM Tris-HCl, pH 7.6, 1 mM EGTA, and 1 mM MgCl2 buffer in a glass homogenizer. The homogenates were centrifuged (SW55 Ti rotor, 50,000 rpm, 10° C., 1 h), and supernatants were used for MTP assay as described before (41; 42) using a kit (Chylos, Inc.).
# [4] = CP-346086 15 mg/kg/day oral 1 week, vs control
# [5] = MTP deficient (plpC) Reversa mice, oral 30 days
# [6] = plpC-injected Reversa mice, Lova 50, T0 50, WY 10 mg/kg/day oral or Ω-3 FA 3 mg/kg/2 day ip, vs plpC control
compound,measurement,setting,value
O=C(Nc1ccc2c(c1)CCN(Cc1ncn[nH]1)C2)c1ccccc1-c1ccc(C(F)(F)F)cc1 [CP-346086],plasma AST/ALT,"[1]; CP-346086 15 mg/kg/day 1 week ± lovastatin 50 or WY14643 10 mg/kg/day, MTPi vs control, co-drugs vs MTPi",significantly enhanced
same,Plasma total and HDL cholesterol,[1]; [4],unaffected
same,"plasma total and LDL triglyceride, and LDL cholesterol",[1]; [4],significantly lower
O=S(=O)(c1ccccc1)N(CC(F)(F)F)c1ccc(C(O)(C(F)(F)F)C(F)(F)F)cc1 [T0901317],plasma cholesterol,[2]; [5],no effect
same,plasma triglycerides,[2]; [5],no effect
same,hepatic free and total cholesterol,[2]; [6],significantly reduced
same,hepatic triglyceride,[2]; [6],no effect
polyinosinic polycytidylic ribonucleic acid [plpC],reduction of hepatic MTP activity compared to controls,[3],~75%
same,decrease in non-HDL-cholesterol,"[2]; Reversa mice, plpC vs PBS",~40%
same,decrease of plasma total triglyceride and cholesterol,"[2]; Reversa mice, plpC vs PBS",50%
same,increase of hepatic free cholesterol,"[2]; Reversa mice, plpC vs PBS",50%
same,increase of hepatic triglyceride,"[2]; Reversa mice, plpC vs PBS",2 fold
same,increase of plasma ALT and AST,"[2]; Reversa mice, plpC vs PBS",2-3 fold
same,reduction of hepatic cholesteryl esters (CE),"[2]; Reversa mice, plpC vs PBS",~30%
